Source: US7256286B2, “Bryostatin analogues, synthetic methods and uses” (The Board of Trustees of the Leland Stanford Junior …, priority 1999, dated 2007)

What was measured:
[1] = system: SK-MEL-28; test: NCI human cancer cell line growth inhibition: SK-MEL-28; format: cell-based; conditions: SK-MEL-28, Melanoma
[2] = system: SW-620; test: NCI human cancer cell line growth inhibition: SW-620; format: cell-based; conditions: SW-620, Colon
[3] = system: MDA-MB-435; test: NCI human cancer cell line growth inhibition: MDA-MB-435; format: cell-based
[4] = system: NCI-H460; format: cell-based, human; conditions: NCI-H460, NSC Lung
[5] = system: SK-OV-3; test: NCI human cancer cell line growth inhibition: SK-OV-3; format: cell-based; conditions: SK-OV-3, Ovarian
[6] = system: KM12; test: NCI human cancer cell line growth inhibition: KM12; format: cell-based; conditions: KM12, Colon
[7] = system: T-47D; test: NCI human cancer cell line growth inhibition: T-47D; format: cell-based; conditions: Breast
[8] = system: MCF7; test: NCI human cancer cell line growth inhibition: MCF7; format: cell-based; conditions: MCF7, Breast
[9] = system: RPMI-8226; test: NCI human cancer cell line growth inhibition: RPMI-8226; format: cell-based; conditions: RPMI-8226, Leukemia
[10] = system: ACHN; test: NCI human cancer cell line growth inhibition: ACHN; format: cell-based; conditions: Renal
[11] = system: MOLT-4; test: NCI human cancer cell line growth inhibition: MOLT-4; format: cell-based; conditions: MOLT-4, Leukemia
[12] = system: TK-10; test: NCI human cancer cell line growth inhibition: TK-10; format: cell-based; conditions: TK-10, Renal
[13] = system: SF-539; test: NCI human cancer cell line growth inhibition: SF-539; format: cell-based; conditions: SF-539, CNS
[14] = system: SF-268; test: NCI human cancer cell line growth inhibition: SF-268; format: cell-based; conditions: SF-268, CNS
[15] = system: U251; test: NCI human cancer cell line growth inhibition: U251; format: cell-based; conditions: U251, CNS
[16] = system: MI4; test: NCI human cancer cell line growth inhibition: MI4; format: cell-based; conditions: MI4, Melanoma
[17] = system: K-562; test: NCI human cancer cell line growth inhibition: K-562; format: cell-based; conditions: K-562, Leukemia
[18] = system: OVCAR-3; test: NCI human cancer cell line growth inhibition: OVCAR-3; format: cell-based; conditions: OVCAR-3, Ovarian
[19] = molecular target: T1, PKCδ-C1B (Mus musculus, UniProt P28867); test: PKCδ-C1B assay; format: binding
T1 construct: made in house
T1 sequence (P28867 231-281 limits assumed): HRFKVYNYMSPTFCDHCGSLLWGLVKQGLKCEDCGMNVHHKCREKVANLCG
Procedure: Phosphatidyl serine vesicles are prepared by the addition of phosphatidyl serine (10 mg/mL in chloroform, 0.4 mL) to a glass test tube followed by removal of the chloroform under a stream of nitrogen (5 min). […] The resulting solution is stored over ice. […] Stock solutions of compounds are diluted with absolute ethanol in glass in serial fashion. […] The tubes are incubated at 37° C. for 90 min. and then put on ice for 5 min. Each tube is then filtered separately through a pre-soaked filter disc. […] The filter is subsequently rinsed with cold 20 mM TRIS buffer (5 mL) dropwise. […] The filters are immediately counted in a scintillation counter (Beckman LS 6000SC). Counts per minute are averaged among three trials at each concentration.

[20] = system: SK-MEL-2; test: NCI human cancer cell line growth inhibition: SK-MEL-2; format: cell-based; conditions: SK-MEL-2, Melanoma
[21] = system: UO-31; test: NCI human cancer cell line growth inhibition: UO-31; format: cell-based; conditions: UO-31, Renal
[22] = system: CAKI-1; test: NCI human cancer cell line growth inhibition: CAKI-1; format: cell-based; conditions: CAKI-1, Renal
[23] = system: HOP-92; test: NCI human cancer cell line growth inhibition: HOP-92; format: cell-based; conditions: HOP-92, NSC Lung
[24] = system: NCI/ADR-RES; format: cell-based, human; conditions: Homo sapiens, Breast, read-out: Growth inhibition (GI50) (converted)
[25] = system: UACC-257; test: NCI human cancer cell line growth inhibition: UACC-257; format: cell-based; conditions: UACC-257, Melanoma

With CCCCCCCC(=O)O[C@H]1/C(=C/C(=O)OC)C[C@H]2C[C@H](CO)OC(=O)C[C@H](O)C[C@@H]3CCCC(CC4CCO[C@H](/C=C/C(C)(C)[C@]1(O)O2)O4)O3 [Formula IIa (702.1)] as the compound, how does the GI50 ([1]; Homo sapiens) read?
The GI50 was 21.4 µM.

And the “Difference (GI50 desmethyl vs Bryo-1)” value [1]?
Its value is 0.43.

What about the GI50 ([2]; Homo sapiens) of the same compound?
The GI50 was 7.59 µM.

And the “Difference (GI50 desmethyl vs Bryo-1)” value [2]?
Its value is 0.38.

What about the GI50 ([3]; Homo sapiens, MDA-MB-435, Breast) of the same compound?
The GI50 was 0.0219 µM.

What about the “more active than bryostatin-1 by” value ([3]; MDA-MB435 (breast)) of the same compound?
Its value is “more than 2 orders of magnitude”.

And the “Difference (GI50 desmethyl vs Bryo-1)” value ([3]; MDA-MB-435, Breast)?
The value was −2.56.

And the GI50 ([4]; Homo sapiens, read-out: Growth inhibition (GI50))?
Its GI50 is under 0.01 µM.

And the “Difference (GI50 desmethyl vs Bryo-1)” value [4]?
The value was −2.40.

What about the “more active than bryostatin-1 by” value [4] of the same compound?
Its value is “more than 2 orders of magnitude”.

And the GI50 ([5]; Homo sapiens)?
Its GI50 is 50.1 µM.

What about the “Difference (GI50 desmethyl vs Bryo-1)” value [5] of the same compound?
The value was 0.80.

And the GI50 ([6]; Homo sapiens)?
The GI50 was 4.57 µM.

What about the “Difference (GI50 desmethyl vs Bryo-1)” value [6] of the same compound?
The value was −0.14.

What about the “Difference (GI50 desmethyl vs Bryo-1)” value [7] of the same compound?
Its value is 0.18.

What about the GI50 ([7]; Homo sapiens, T47D) of the same compound?
Its GI50 is 9.55 µM.

What about the GI50 ([8]; Homo sapiens) of the same compound?
The GI50 was 3.98 µM.

And the “Difference (GI50 desmethyl vs Bryo-1)” value [8]?
The value was −0.20.

And the GI50 ([9]; Homo sapiens)?
Its GI50 is 1.51 µM.

And the “Difference (GI50 desmethyl vs Bryo-1)” value [9]?
Its value is −0.82.

What about the GI50 ([10]; Homo sapiens) of the same compound?
The GI50 was 1.15 µM.

What about the “Difference (GI50 desmethyl vs Bryo-1)” value [10] of the same compound?
Its value is −0.44.

And the GI50 ([11]; Homo sapiens)?
Its GI50 is under 0.01 µM.

And the “Difference (GI50 desmethyl vs Bryo-1)” value [11]?
Its value is −2.50.

What about the “more active than bryostatin-1 by” value [11] of the same compound?
Its value is “more than 2 orders of magnitude”.

And the GI50 ([12]; Homo sapiens)?
Its GI50 is 0.0933 µM.

And the “Difference (GI50 desmethyl vs Bryo-1)” value [12]?
Its value is −2.03.

What about the “more active than bryostatin-1 by” value [12] of the same compound?
The value was “more than 2 orders of magnitude”.

And the GI50 ([13]; Homo sapiens)?
The GI50 was 1.7 µM.

What about the “Difference (GI50 desmethyl vs Bryo-1)” value [13] of the same compound?
The value was −0.77.

And the GI50 ([14]; Homo sapiens)?
Its GI50 is 10.7 µM.

What about the “Difference (GI50 desmethyl vs Bryo-1)” value [14] of the same compound?
The value was 0.13.

And the GI50 ([15]; Homo sapiens, U-251)?
The GI50 was 3.98 µM.

What about the “Difference (GI50 desmethyl vs Bryo-1)” value [15] of the same compound?
The value was −0.30.

And the GI50 ([16]; Homo sapiens)?
The GI50 was 5.5 µM.

What about the “Difference (GI50 desmethyl vs Bryo-1)” value [16] of the same compound?
The value was −0.26.

What about the GI50 ([17]; Homo sapiens, K562) of the same compound?
The GI50 was 0.0316 µM.

What about the “Difference (GI50 desmethyl vs Bryo-1)” value [17] of the same compound?
The value was −2.10.

What about the “more active than bryostatin-1 by” value [17] of the same compound?
The value was “more than 2 orders of magnitude”.

What about the GI50 ([18]; Homo sapiens) of the same compound?
The GI50 was 14.8 µM.

What about the “Difference (GI50 desmethyl vs Bryo-1)” value [18] of the same compound?
Its value is 0.27.

And the Ki [19]?
Its Ki is 0.0003 ± 7e-05 µM.

And the “activity in PKCδ-C1B assay compared with other analogues” value ([19]; 702.1 vs corresponding C26 methyl-containing analogue, 48, 49 among C20 ester analogues)?
The value was “significantly higher activity”.

What about the GI50 ([20]; Homo sapiens) of the same compound?
Its GI50 is 9.55 µM.

And the “Difference (GI50 desmethyl vs Bryo-1)” value [20]?
The value was 0.18.

What about the GI50 ([21]; Homo sapiens) of the same compound?
The GI50 was 14.1 µM.

What about the “Difference (GI50 desmethyl vs Bryo-1)” value [21] of the same compound?
The value was 0.75.

What about the “Difference (GI50 desmethyl vs Bryo-1)” value [22] of the same compound?
The value was −0.30.

And the GI50 ([22]; Homo sapiens)?
The GI50 was 2 µM.

And the “Difference (GI50 desmethyl vs Bryo-1)” value [23]?
The value was 0.63.

And the GI50 ([23]; Homo sapiens)?
The GI50 was 21.4 µM.

And the GI50 [24]?
The GI50 was 18.2 µM.

And the GI50 ([25]; Homo sapiens)?
Its GI50 is 7.41 µM.

And the “Difference (GI50 desmethyl vs Bryo-1)” value [25]?
Its value is −0.03.
